In PubChem BioAssay (NCI):
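Each compound was tested at five concentrations against cells in 96-well plates for 48 hours. GI50 marks 50% less growth. At the TGI there is no net growth.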

Key:
Assay in all cases: growth of human tumour cells (NCI), 48 h
SR leukemia = tested on: SR leukemia
U251 CNS = tested on: U251 CNS
HOP-62 NSCLC = tested on: HOP-62 NSCLC
OVCAR-3 ovarian = tested on: OVCAR-3 ovarian
COLO 205 colon = tested on: COLO 205 colon
MDA-MB-231 breast = tested on: MDA-MB-231 breast
HCT-15 colon = tested on: HCT-15 colon
SF-268 CNS = tested on: SF-268 CNS
SNB-19 CNS = tested on: SNB-19 CNS
EKVX NSCLC = tested on: EKVX NSCLC

| Structure (SMILES) | GI50 (SR leukemia) | TGI (SR leukemia) | GI50 (U251 CNS) | TGI (U251 CNS) | GI50 (HOP-62 NSCLC) | TGI (HOP-62 NSCLC) | GI50 (OVCAR-3 ovarian) | TGI (OVCAR-3 ovarian) | GI50 (COLO 205 colon) | TGI (COLO 205 colon) | GI50 (MDA-MB-231 breast) | TGI (MDA-MB-231 breast) | GI50 (HCT-15 colon) | TGI (HCT-15 colon) | GI50 (SF-268 CNS) | TGI (SF-268 CNS) | GI50 (SNB-19 CNS) | TGI (SNB-19 CNS) | TGI (EKVX NSCLC) | GI50 (EKVX NSCLC) |
| --- | --- | --- | --- | --- | --- | --- | --- | --- | --- | --- | --- | --- | --- | --- | --- | --- | --- | --- | --- | --- |
| OCCN1CCCN(CCCN2c3ccccc3Sc3ccc(C(F)(F)F)cc32)CC1 | 2.18 µM | 4.75 µM | 2.04 µM | 4.32 µM | 2.25 µM | 5.05 µM | 3.84 µM | 13.9 µM | 1.94 µM | 3.68 µM | 2.31 µM | 6.15 µM | 2.74 µM | 10.3 µM | 3.6 µM | 15.5 µM | 2.84 µM | 11.7 µM | – | – |
| COc1cc(C(=O)Nc2ccc(-c3nc4ccccc4[nH]3)cc2)cc(OC)c1OC | 6.92 µM | 40.9 µM | 10.2 µM | 23.4 µM | 6.44 µM | 23.9 µM | 12.4 µM | 27.9 µM | 15.3 µM | 39.1 µM | 9.38 µM | 24 µM | 6.61 µM | 24.4 µM | 14.2 µM | 37.4 µM | 11.6 µM | 29.1 µM | – | – |
| Cc1ncc([N+](=O)[O-])n1CCOc1ccc(C(=O)/C=C/c2ccc(C(F)(F)F)cc2)cc1 | 1.97 µM | 5.5 µM | 1.51 µM | 3.08 µM | 2.53 µM | 7.29 µM | 2.37 µM | 5.7 µM | 2.11 µM | 4.67 µM | 3.53 µM | 15.5 µM | 1.82 µM | 4.09 µM | 2.72 µM | 8.49 µM | 3.34 µM | 15.7 µM | – | – |
| CC1(C)O[C@@H](CCl)C[C@@H](C#N)O1 | – | > 100 µM | – | > 100 µM | – | > 100 µM | – | > 100 µM | – | > 100 µM | – | – | – | – | – | > 100 µM | – | > 100 µM | > 100 µM | – |
| CC(=O)Nc1ccc2c(c1)[nH]c(=O)c1cc(Cl)ccc12 | – | 18.4 µM | – | > 100 µM | – | > 100 µM | – | – | – | > 100 µM | – | > 100 µM | – | > 100 µM | – | > 100 µM | – | > 100 µM | > 100 µM | – |
| CCOc1ccc(N=Nc2c(-c3ccccc3)nn(C(=O)CC(=O)Nc3ccccc3Cl)c2-c2ccccc2)cc1 | – | > 100 µM | – | > 100 µM | – | > 100 µM | – | > 100 µM | – | > 100 µM | – | – | – | – | – | > 100 µM | – | > 100 µM | > 100 µM | – |
| COc1cc2ccc(CC(=O)O)cc2cc1OC | – | > 100 µM | – | > 100 µM | – | > 100 µM | – | > 100 µM | – | > 100 µM | – | – | – | > 100 µM | – | > 100 µM | – | > 100 µM | > 100 µM | – |
| CC[C@]1(O)C[C@@H]2CN(CCc3c([nH]c4ccccc34)[C@@](C(=O)OC)(c3cc4c(cc3OC)N(C)[C@H]3[C@@](O)(C(=O)OC)[C@H](OC(=O)CCCBr)[C@]5(CC)C=CCN6CC[C@]43[C@@H]65)C2)C1 | < 0.01 µM | > 100 µM | 0.0334 µM | > 100 µM | 0.0386 µM | > 100 µM | < 0.01 µM | < 0.0126 µM | – | – | – | – | 0.12 µM | > 100 µM | 0.197 µM | 17.5 µM | < 0.0215 µM | > 100 µM | > 100 µM | 0.336 µM |
| CCOC(=O)c1cnc2c(ccc3ncccc32)c1OCC | – | > 100 µM | – | > 100 µM | – | > 100 µM | – | > 100 µM | – | > 100 µM | – | – | – | > 100 µM | – | > 100 µM | – | > 100 µM | > 100 µM | – |
